Holding throughout (test): growth of human tumour cells (NCI), 48 h
In test [1] the test system is A498 renal.
The test system of test [2] is HCT-15 colon.
In test [3] the test system is HS 578T breast.
For test [4], the system named is MDA-MB-435.
Test [5] deals with MOLT-4 leukemia.
The subject of test [6] is PC-3 prostate.
Test [7] concerns RPMI-8226 leukemia.
For test [8], the system named is RXF 393 renal.
Test [9] relates to TK-10 renal.
In test [10] the test system is UACC-257 melanoma.

The values below come from PubChem BioAssay (NCI).

Each structure is given as a SMILES string.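 The compound was tested at five concentrations on cells cultured in 96-well plates, with a 48-hour exposure period. GI50 marks 50% less growth. TGI is the concentration that stops growth completely.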 Some results are limits rather than exact numbers.

On to `CC1(C)C(=O)/C=C\C(=O)C(C)(C)C(=O)/C=C\C(=O)C(C)(C)C2=CC=C(O2)C(C)(C)C(=O)/C=C\C1=O`, for which the TGI in [1] came out at 30.9 µM; in test [2] it was 7.69 µM; in test [3], 50 µM; in test [4], 29.3 µM; in test [5] it was 4.81 µM; in test [6], 29.2 µM. In addition, the TGI amounted to 3.17 µM in test [7], 4.73 µM in [8], 13.4 µM in test [9] and 16.6 µM in [10].
Consider `CN1CCN(c2ccc(NC3=CC(=O)c4ncncc4C3=O)cc2)CC1`, for which the GI50 in [1] was 1.42 µM; in [2], 0.343 µM; in test [3], 1.74 µM; in test [4], 0.191 µM; in test [5] it was 0.289 µM; in test [6], 0.289 µM. Also, the GI50 in [7] is 0.261 µM; in test [8], 1.29 µM; in [9], 2.01 µM; in test [10] it was 0.177 µM. The TGI in [1] was 2.8 µM; in test [2], 1.44 µM; in test [3], 6.29 µM; in test [4] it was 0.35 µM; in [6], 1.14 µM; in test [7], 0.75 µM. For the same compound, the TGI is 2.61 µM in test [8], 3.81 µM in test [9] and 0.357 µM in test [10].
On to `COc1cc(C(=O)n2nc(N)c3c(C)cc(C)nc32)cc(OC)c1OC`, for which the GI50 in test [1] is greater than 20.8 µM; in test [2], 1.38 µM; in test [3], greater than 100 µM; in [4], 0.325 µM; in test [5], 7.26 µM; in test [6] it was greater than 100 µM. For the same compound, the GI50 was greater than 82.1 µM in [7], 25.3 µM in test [8], greater than 100 µM in test [9] and greater than 100 µM in [10]. Besides, the TGI in [1] was greater than 100 µM; in test [2], greater than 100 µM; in [3], greater than 100 µM; in [4] it was 6.01 µM; in test [5] it was greater than 100 µM; in test [6], greater than 100 µM. In addition, the TGI in [7], in [8], in test [9] and in test [10] was greater than 100 µM each time.
Consider `N=C(CC(=O)Nc1ccccn1)c1ccccc1`, for which the TGI in test [1], in test [2], in [3], in test [4], in test [5] and in test [6] was greater than 100 µM in each case. The TGI in test [7], in [8], in [9] and in [10] was greater than 100 µM each time.
For the compound `CC1=C[C@@H]2c3c(c(O)c(O)c4oc5cc(O)cc(O)c5c(=O)c34)[C@@H](c3cc(O)c(O)c4oc5cc(O)cc(O)c5c(=O)c34)[C@@H]2C(C)(C)C1`, the GI50 in [1] was 9.07 µM; in test [2], 3.16 µM; in [3], 3.42 µM; in test [4] it was 3.49 µM; in test [5], 3.38 µM; in test [6], 3.33 µM. Besides, the GI50 in test [7] is 1.96 µM; in test [8] it was 5.69 µM; in [9], 5.85 µM; in [10] it was 9.65 µM. The TGI was 21 µM in test [1]; 12.8 µM in [2]; 21 µM in test [3]; 13.7 µM in test [4]; 19.5 µM in [5]; 14 µM in test [6]. Also, the TGI in test [7] came to 10.3 µM; in test [8], 17.3 µM; in test [9] it was 19.2 µM; in test [10] it was 24.5 µM.
On to `O=C1/C(=C/c2ccc([N+](=O)[O-])o2)Oc2ccc(Cl)cc21`, for which the GI50 was 14.4 µM in [1]; 0.537 µM in test [2]; 2.95 µM in [3]; 1.99 µM in [4]; 2.05 µM in [5]; 1.92 µM in test [6]. Further, the GI50 was 1.37 µM in test [7], 1.65 µM in [8], 2.14 µM in [9] and 1.85 µM in [10]. For the same compound, the TGI in test [1] was 34 µM; in test [2] it was 2.05 µM; in test [3], greater than 27.6 µM; in test [4], 4.5 µM; in test [5], 6.73 µM; in [6] it was 5.08 µM. Besides, the TGI in test [7] came to 4.72 µM; in test [8], 3.6 µM; in [9] it was 3.85 µM; in [10] it was 4.12 µM.
`Fc1ccc(Nc2nc(Nc3ccc(-c4nc5ccccc5[nH]4)cc3)c3cn[nH]c3n2)cc1`: the GI50 in test [1] is 14.6 µM; in test [2] it was 1.76 µM; in [3] it was 2.12 µM; in test [4] it was 1.71 µM; in test [5], 2.55 µM; in test [6], 2.02 µM. Also, the GI50 was 2.3 µM in test [7], 1.67 µM in test [8], 2.29 µM in test [9] and 2 µM in test [10]. Besides, the TGI in [1] came out at 27.7 µM; in test [2], 4.78 µM; in [3] it was 5.35 µM; in test [4] it was 3.23 µM; in test [5], 5.63 µM; in test [6], 4.53 µM. The TGI was determined as 5.2 µM in test [7], 3.4 µM in [8], 5.29 µM in [9] and 4.37 µM in [10].
In the case of `CSc1ccc(C(=O)/C=C/c2ccc(Cl)cc2Cl)cc1`, the GI50 in test [1] was 20.3 µM; in test [2], 29.8 µM; in [3], 28.6 µM; in test [4] it was 26.3 µM; in test [5] it was 16.4 µM; in test [6] it was 39.6 µM. The GI50 in test [7] is 14.7 µM; in [8], 16.4 µM; in test [9], 20.9 µM; in test [10], 24 µM. The TGI in [1] is 51.3 µM; in [2], 97.7 µM; in test [3], 68.4 µM; in test [4], 88.3 µM; in [5], 33.9 µM; in test [6], greater than 100 µM. The TGI was found to be 37.7 µM in [7], 36.2 µM in test [8], 52.9 µM in test [9] and 91.4 µM in test [10].
